Measurements from US7943628B2, “Pyrimidine derivatives” (Pfizer Limited, priority 2005, dated 2011).

Molecular target: T1, histamine H4 receptor (Homo sapiens, UniProt Q9H3N8)
T1 construct: expressed in transfected cells; host or cells: CHO cells
Assay: H4 binding, method 2 ([3H]-histamine binding with Ysi WGA beads on CHO cell membranes)
Conditions: H4 binding, method 2; Ki calculated from IC50 (Cheng-Prussoff); read-out: Method 2 (Ki (nM))
Description: Cell pellets from CHO cells expressing the histamine H4 receptor were homogenised in ice-cold 50 mM Tris-HCl/0.5 mM CaCl2 buffer containing a protease inhibitor cocktail (Roche®, United Kingdom) using a ground glass homogeniser. Homogenates were centrifuged at 48000 g for 30 min at 4° C. The membrane pellet was resuspended in fresh buffer and the centrifugation step was repeated as described above. The membrane pellet was resuspended in 50 mM Tris-HCl in the same volume as the original cell pellet. Aliquots of membrane preparations were stored at −80° C. and were used for [^3H]-Histamine binding experiments.
Cell membranes (15 μg/well) were pre-incubated for 120 min shaking at 4° C. with Ysi WGA beads (250 μg/well) in 50 mM Tris-HCl (pH 7.4) followed by centrifugation at 1500 rpm for 5 minutes and resuspension in 50 mM Tris-HCl (pH 7.4). The membrane/bead mixture (15 μg membrane/250 μg beads well) was incubated for 90 minutes shaking at room temperature with 6.5 nM [2,5-^3H] Histamine dihydrochloride (30-60 Ci/mmol) in 50 mM Tris-HCl (pH 7.4), with or without competing H4 ligands. Non-specific binding was defined with 10 μM JNJ7777120. Bound radiolabel was determined using scintillation counting techniques after 90 minutes.

Molecule | Ki
CN1CCC(N(C)c2cc(NCCC(C)(C)C)ncn2)CC1 [Example 279, N′-(3,3-Dimethylbutyl)-N-methyl-N-(1-methylpiperidin-4-yl)pyrimidine-4,6-diamine] | > 9130 nM
CNC1CN(c2cc(NCC(C)C)ncn2)C1 [Example 49, N-Isobutyl-6-[3-(methylamino)azetidin-1-yl]pyrimidin-4-amine] | 29.9 nM
CNC1CN(c2cc(NCCC(C)(C)C)nc(N)n2)C1 [Example 64, N^4-(3,3-Dimethyl-butyl)-6-(3-methylamino-azetidin-1-yl)-pyrimidine-2,4-diamine] | 4.43 nM
CNC1CN(c2cc(NCCO)ncn2)C1 [Example 50, 2-({6-[3-(Methylamino)azetidin-1-yl]pyrimidin-4-yl}amino)ethanol] | 279 nM
CNC1CN(c2cc(NCc3cccc(C)c3)nc(N)n2)C1 [Example 83, 6-[3-(Methylamino)azetidin-1-yl]-N^4-(3-methylbenzyl)pyrimidine-2,4-diamine] | 62.3 nM
CCNc1cc(N2CC[C@H](NC)C2)ncn1 [Example 16, N-Ethyl-6-[(3S)-3-(methyl-amino)pyrrolidin-1-yl] pyrimidin-4-amine] | 1740 nM
CNC1CN(c2cc(NCc3ccccc3Cl)ncn2)C1 [Example 52, N-(2-Chlorobenzyl)-6-[3-(methylamino)azetidin-1-yl]pyrimidin-4-amine] | 99.7 nM
CCNc1cc(N2C[C@H]3CN(C)C[C@H]3C2)nc(N)n1 [Example 36, N^4-Ethyl-6-[(3aR*,6aS*)-5-methylhexahydro-pyrrolo[3,4-c]pyrrol-2(1H)-yl]pyrimidine-2,4-diamine] | 1620 nM
CCNc1cc(N2CC[C@@H](NC)C2)ncn1 [Example 13, N-Ethyl-6-[(3R)-3-(methyl-amino)pyrrolidin-1-yl]pyrimidin-4-amine] | 51.8 nM
CCNc1cc(N2CC[C@@H](N(C)C)C2)ncn1 [Example 21, 6-[(3R)-3-(Dimethylamino)pyrrolidin-1-yl]-N-ethyl-pyrimidin-4-amine] | 722 nM
c1nc(NCC2CC2)cc(N2C[C@H]3CCCN[C@H]3C2)n1 (relative stereo) [Example 123, N-(Cyclopropylmethyl)-6-[(4aR*,7aR*)-octahydro-6H-pyrrolo[3,4-b]pyridin-6-yl]pyrimidin-4-amine] | 103 nM
CNC1CN(c2cc(NCc3cccc(C(F)(F)F)c3)nc(N)n2)C1 [Example 80, 6-[3-(Methylamino)azetidin-1-yl]-N^4-[3-(trifluoromethyl)benzyl]pyrimidine-2,4-diamine] | 103 nM
N-Methyl-6-[3-(methylamino)azetidin-1- yl]pyrimidin-4-amine [Example 58] | 301 nM
CNC1CN(c2cc(N3CCC(C)CC3)ncn2)C1 [Example 53, N-Methyl-1-[6-(4-methylpiperidin-1-yl)pyrimidin-4-yl]azetidin-3-amine] | 1940 nM
CC(C)CCNc1cc(N2C[C@H]3CN(C)C[C@H]3C2)nc(N)n1 [Example 41, N^4-(3-Methylbutyl)-6-[(3aR*,6aS*)-5-methylhexahydro-pyrrolo[3,4-c]pyrrol-2(1H)-yl]pyrimidine-2,4-diamine] | 202 nM
CNC1CN(c2cc(NCc3ccccc3Cl)nc(N)n2)C1 [Example 89, N^4-(2-Chlorobenzyl)-6-[3-(methylamino)azetidin-1-yl]pyrimidine-2,4-diamine] | 1.93 nM
CC(C)(C)CCNc1cc(N2C[C@H]3CCCN[C@H]3C2)nc(N)n1 (racemic) [Example 23, N^4-(3,3-Dimethylbutyl)-6-[(4aR*,7aR*)-octahydro-6H-pyrrolo[3,4-b]pyridin-6-yl]pyrimidine-2,4-diamine] | 824 nM
CC(C)(C)CCNc1cc(N2C[C@H]3CCCN[C@H]3C2)ncn1 (racemic) [Example 328, N-(3,3-Dimethylbutyl)-6-[(4aR*,7aR*)-octahydro-6H-pyrrolo[3,4-b]pyridin-6-yl]pyrimidin-4-amine] | 554 nM
CNC1CN(c2cc(NCc3cccc(Cl)c3)nc(N)n2)C1 [Example 86, N^4-(3-Chlorobenzyl)-6-[3-(methylamino)azetidin-1-yl]pyrimidine-2,4-diamine] | 142 nM
CNc1cc(N2CC(NC)C2)nc(N)n1 [Example 69, N^4-Methyl-6-[3-(methylamino)azetidin-1-yl]pyrimidine-2,4-diamine] | 9.38 nM
CNC1CN(c2cc(NCc3ccc(F)cc3)nc(N)n2)C1 [Example 90, N^4-(4-Fluorobenzyl)-6-[3-(methylamino)azetidin-1-yl]pyrimidine-2,4-diamine] | 6.42 nM
CNC1CN(c2cc(NCc3ccc(C(F)(F)F)cc3)nc(N)n2)C1 [Example 85, 6-[3-(Methylamino)azetidin-1-yl]-N^4-[4-(trifluoromethyl)benzyl]pyrimidine-2,4-diamine] | 156 nM

More lines, now with the values ahead:

Ki | Molecule
635 nM | CN1CCN(c2cc(NC[C@@H]3CCCO3)ncn2)CC1 [Example 112, 6-(4-Methylpiperazin-1-yl)-N-[(2S)-tetrahydrofuran-2-ylmethyl]pyrimidin-4-amine]
1090 nM | CC(C)(C)CCNc1cc(N2CC(N)C2)ncn1 [Example 118, 6-(3-Aminoazetidin-1-yl)-N-(3,3-dimethylbutyl)pyrimidin-4-amine]
8.42 nM | CC(C)CCNc1cc(N2CCN(C)CC2)nc(N)n1 [Example 108, N^4-(3-Methylbutyl)-6-(4-methylpiperazin-1-yl)pyrimidine-2,4-diamine]
386 nM | CN1CCN(c2cc(NCc3cccc(F)c3)nc(N)n2)CC1 [Example 91, N^4-(3-Fluorobenzyl)-6-(4-methylpiperazin-1-yl)pyrimidine-2,4-diamine]
9.11 nM | C[C@@H]1CN(c2cc(NCC(C)(C)C)nc(N)n2)CCN1 [Example 95, N^4-(2,2-Dimethylpropyl)-6-[(3R)-3-methylpiperazin-1-yl]pyrimidine-2,4-diamine]
61.1 nM | C[C@H]1CN(c2cc(NCCC(C)(C)C)nc(N)n2)CCN1 [Example 94, N^4-(3,3-Dimethylbutyl)-6-[(3S)-3-methylpiperazin-1-yl]pyrimidine-2,4-diamine]
5350 nM | COCCNc1cc(N[C@@H]2CCNC2)ncn1 [Example 335, N-(2-Methoxyethyl)-N′-[(3R)-pyrrolidin-3-yl]pyrimidine-4,6-diamine]
7930 nM | CC(C)(C)CCNc1cc(N[C@H]2CCN(Cc3ccccc3)C2)nc(N)n1 [Example 338, N^4-[(3S)-1-Benzylpyrrolidin-3-yl]-N6-(3,3-dimethylbutyl)pyrimidine-2,4,6-triamine]
7220 nM | c1ccc(CNc2cc(N[C@@H]3CCNC3)ncn2)cc1 [Example 337, N-Benzyl-N′-[(3R)-pyrrolidin-3-yl]pyrimidine-4,6-diamine]

Same assay, conditions: Method 2 (Ki (nM)), H4 binding, method 2; Ki calculated from IC50 (Cheng-Prussoff)

Molecule | Ki
CN1CCN(c2cc(NCC(C)(C)C)ncn2)CC1 [Example 99, N-(2,2-Dimethylpropyl)-6-(4-methylpiperazin-1-yl)pyrimidin-4-amine] | 38.1 nM
CC(C)Nc1cc(N2CCN(C)CC2)nc(N)n1 [Example 119, N^4-Isopropyl-6-(4-methylpiperazin-1-yl)pyrimidine-2,4-diamine] | 7.8 nM
CCNc1cc(N2CCN[C@@H](C)C2)nc(N)n1 [Example 98, N^4-Ethyl-6-[(3S)-3-methylpiperazin-1-yl]pyrimidine-2,4-diamine] | 56.2 nM
CC(C)(C)CNc1cc(N2C[C@H]3CCCN[C@H]3C2)ncn1 (racemic) [Example 127, N-(2,2-Dimethylpropyl)-6-[(4aR*,7aR*)-octahydro-6H-pyrrolo[3,4-bjpyridin-6-yl]pyrimidin-4-amine] | 65.8 nM
CN1C[C@@H]2CN(c3cc(NCC(C)(C)C)nc(N)n3)C[C@@H]2C1 [Example 39, N^4-(2,2-Dimethylpropyl)-6-[(3aR*,6aS*)-5-methylhexahydro-pyrrolo[3,4-c]pyrrol-2(1H)-yl]pyrimidine-2,4-diamine] | 88.9 nM
CCNc1cc(N2CCN[C@H](C)C2)nc(N)n1 [Example 97, N^4-Ethyl-6-[(3R)-3-methylpiperazin-1-yl]pyrimidine-2,4-diamine] | 43.7 nM

Same assay, conditions: at 40 μM

Method 2, % at 40 μM | Molecule
40% at 40 μM | COCCNc1cc(N[C@H]2CCNC2)ncn1 [Example 344, N-(2-Methoxyethyl)-N′-[(3S)-pyrrolidin-3-yl]pyrimidine-4,6-diamine]
50% at 40 μM | CC(C)(C)CCNc1cc(N2CCC(N)CC2)ncn1 [Example 340, 6-(4-Aminopiperidin-1-yl)-N-(3,3-dimethylbutyl)pyrimidin-4-amine]
49% at 40 μM | c1nc(NC[C@H]2CCCO2)cc(N[C@@H]2CCNC2)n1 [Example 345, N-[(3R)-Pyrrolidin-3-yl]-N′-[(2R)-tetrahydrofuran-2-ylmethyl]pyrimidine-4,6-diamine]

Molecular target: T1, histamine H4 receptor
Assay: H4 binding, method 1 ([3H]-histamine filtration binding on CHO cell membranes)
Conditions: H4 binding, method 1; Ki calculated from IC50 (Cheng-Prussoff)
How it was run: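 Membranes from CHO cells expressing human H4 receptor (20-35 μg/well) incubated 90 min at room temperature with 3 nM [3H]-histamine in 50 mM Tris-HCl pH 7.4, ± competitor. Bound label separated by filtration on PEI-soaked GF/B filters and counted by scintillation; non-specific binding with 10 μM JNJ7777120.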

Molecule | Ki
CN1CCC(N(C)c2cc(NCCC(C)(C)C)ncn2)CC1 [Example 279, N′-(3,3-Dimethylbutyl)-N-methyl-N-(1-methylpiperidin-4-yl)pyrimidine-4,6-diamine] | 1370 nM
CNC1CN(c2cc(NCC(C)C)ncn2)C1 [Example 49, N-Isobutyl-6-[3-(methylamino)azetidin-1-yl]pyrimidin-4-amine] | 10.7 nM
CNC1CN(c2cc(NCCC(C)(C)C)nc(N)n2)C1 [Example 64, N^4-(3,3-Dimethyl-butyl)-6-(3-methylamino-azetidin-1-yl)-pyrimidine-2,4-diamine] | 4.63 nM
CN1CCN(c2cc(NCC(C)(C)C)ncn2)CC1 [Example 99, N-(2,2-Dimethylpropyl)-6-(4-methylpiperazin-1-yl)pyrimidin-4-amine] | 23.6 nM
CC(C)Nc1cc(N2CCN(C)CC2)nc(N)n1 [Example 119, N^4-Isopropyl-6-(4-methylpiperazin-1-yl)pyrimidine-2,4-diamine] | 3.44 nM
